From patent publication US11376580B2, “Methods and systems comprising modified pipettes for transferring and preserving biomaterial” (UNIVERSITY OF PITTSBURGH—OF THE COMMONWEALTH SYSTEM OF …, priority 2017, dated 2022)
Where two headings read alike, the source gives them in different places.

Key:
[1] = tested on: HEK293 cells
[2] = tested on: primary human hepatocytes
[3] = in vitro; conditions: human
[4] = in vitro; conditions: human; remark: listed apart in the source
[5] = in vitro; conditions: human; remark: listed apart in the source
[6] = tested on: HEK293 cells; remark: listed apart in the source
[7] = tested on: Human primary hepatocytes; assay type: in vitro ADME
[8] = tested on: primary human hepatocytes; conditions: for Metabolite Generation (marker metabolite of the probe): 10 uM
Procedure: Probe metabolism was tested as a fresh hepatocyte suspension culture, as a fresh agarose gelled BioActivator and after thawing a cryopreserved BioActivator. In all three testing conditions 50,000 viable hepatocytes were tested as following: (a) as a suspension in 500 μl of probe media, or, (b) in 50 μl of gelled agarose submerged in 450 μl of probe media. Cryopreserved BioActivators were thawed for testing after 48 hours at −80° C. Probe media was collected from the 3 test conditions at 30 minutes and 18 hours. Ice-cold acetonitrile containing 10 μM chlorzoxazone (internal extraction standard) was added at a 2:1 ratio to the collected media. The extraction mixture was analyzed by LC MS/MS.

[9] = HEK293 Cytotoxicity LC50, HEK293 + BioActivator
[10] = HEK293 Cytotoxicity LC50, HEK 293 + cell free agarose beads
[11] = HEK293 Cytotoxicity LC50, HEK293 + BioActivator Pre-Conditioned Media
[12] = HEK293 Cytotoxicity LC50, HEK 293 + Cell Free Agarose Bead Pre-Conditioned Media
[13] = HEK293 Cytotoxicity LC50, HEK293 + BioActivator, co-cultured 24 hours with BioActivators, Mean ± SD (N = 3), max 250 μM
[14] = HEK293 Cytotoxicity LC50, HEK 293 + cell free agarose beads, co-cultured 24 hours with cell free agarose beads, Mean ± SD (N = 3), max 250 μM
[15] = HEK293 Cytotoxicity LC50, HEK293 + BioActivator Pre-Conditioned Media, compounds pre-conditioned 24 h in BioActivator, then 24 h on HEK293, Mean ± SD (N = 3)

**Q.** Which results are given for `Nc1ccc2ccccc2c1` [2-Napthylamine, 2-Napthylamine]?
**A.** HEK293 cytotoxicity co-cultured with BioActivator (in words) [1]: No HEK293 cytotoxicity; HEK293 cytotoxicity co-cultured with cell free agarose bead (in words) [1]: No HEK293 cytotoxicity; CC50 [2]: > 250 µM

**Q.** What does the source list for `O=[N+]([O-])c1ccc(O)cc1` [4-Nitrophenol, 4-Nitrophenol]?
**A.** CC50 [3]: > 250 µM; CC50 [4, 9]: 101 µM; CC50 [4, 10]: > 250 µM; CC50 [5, 11]: 199 µM; CC50 [5, 12]: > 250 µM; HEK293 cytotoxicity of compounds pre-conditioned in the BioActivator (in words) [6]: produce cytotoxicity

**Q.** What does the source list for `Nc1cc2c3ccccc3ccc2c2ccccc12` [6-Aminochrysene]?
**A.** CC50 [3]: > 250 µM; CC50 [4, 13]: 84 ± 2 µM; CC50 [4, 14]: > 250 µM; CC50 [5, 15]: 241 ± 9.8 µM; HEK293 cytotoxicity of compounds pre-conditioned in the BioActivator (in words) ([6]; compared to compounds pre-conditioned in cell free agarose beads): produce cytotoxicity

**Q.** With `C=CC(N)=O` [Acrylamide] as the compound, how does the CC50 [3] read?
**A.** > 250 µM

**Q.** And the CC50 [4, 9]?
**A.** 167 ± 7.9 µM

**Q.** What about the CC50 [4, 10] of the same compound?
**A.** > 250 µM

**Q.** What about the CC50 [5, 11] of the same compound?
**A.** > 250 µM

**Q.** What about the CC50 [5, 12] of the same compound?
**A.** > 250 µM

**Q.** Which CC50 [3] does the source give for `c1ccc2c(c1)cc1ccc3cccc4ccc2c1c34` [Benzo[a]pyrene] here?
**A.** > 250 µM

**Q.** And the CC50 [4, 13]?
**A.** > 250 µM

**Q.** What about the CC50 [4, 14] of the same compound?
**A.** > 250 µM

**Q.** And the CC50 [5, 15]?
**A.** > 250 µM

**Q.** What about the “HEK293 cytotoxicity co-cultured with BioActivator (in words)” value ([1]; 24 h co-culture with BioActivator, up to 250 μM, compared to cell free agarose bead) of the same compound?
**A.** No HEK293 cytotoxicity

**Q.** And the “HEK293 cytotoxicity co-cultured with cell free agarose bead (in words)” value ([1]; 24 h co-culture with cell free agarose bead, up to 250 μM)?
**A.** No HEK293 cytotoxicity

**Q.** What does the source list for `O=P1(N(CCCl)CCCl)NCCCO1` (stereo not shown) [Cyclophosphamide]?
**A.** CC50 [3]: > 250 µM; CC50 [4, 9]: > 250 µM; CC50 [4, 10]: > 250 µM; CC50 [5, 11]: > 250 µM; CC50 [5, 12]: > 250 µM; HEK293 cytotoxicity co-cultured with BioActivator (in words) ([1]; human): No HEK293 cytotoxicity; HEK293 cytotoxicity co-cultured with cell free agarose bead (in words) ([1]; human): No HEK293 cytotoxicity

**Q.** Which “Metabolite generation in slotted pipette tip compared with control hepatocyte suspension cultures (in words)” value [7] does the source give for `O=C(O)Cc1ccccc1Nc1c(Cl)cccc1Cl` [Diclofenac] here?
**A.** compare favorably

**Q.** What about the “Effect of cryopreservation on hepatocyte clearance of probe (in words)” value [8] of the same compound?
**A.** minimal impact

**Q.** What about the “Metabolite Generation (marker metabolite of the probe)” value ([8]; human, 30 min) of the same compound?
**A.** 0.98 pmol/min/10^6 hepatocytes

**Q.** With `COc1cccc2c1C(=O)c1c(O)c3c(c(O)c1C2=O)C[C@@](O)(C(=O)CO)C[C@@H]3O[C@H]1C[C@H](N)[C@H](O)[C@H](C)O1` [Doxorubicin] as the compound, how does the CC50 [3] read?
**A.** 104 ± 4.6 µM

**Q.** What about the CC50 [4, 13] of the same compound?
**A.** 59 ± 5.1 µM

**Q.** And the CC50 [4, 14]?
**A.** 108 ± 9.3 µM

**Q.** And the CC50 [5, 15]?
**A.** 71 ± 2.7 µM

**Q.** And the “HEK293 cytotoxicity of compounds pre-conditioned in the BioActivator (in words)” value [6]?
**A.** produce cytotoxicity

**Q.** And the “HEK293 cytotoxicity co-cultured with BioActivator (in words)” value ([1]; human)?
**A.** measurable LC50 responses

**Q.** And the “HEK293 cytotoxicity co-cultured with cell free agarose bead (in words)” value ([1]; human)?
**A.** measurable LC50

**Q.** What about the “Cytotoxicity in BioActivator hepatocytes at end of co-culture (in words)” value [2] of the same compound?
**A.** cytotoxicity was evident

**Q.** What about the “Cytotoxicity in BioActivator hepatocytes at end of co-culture (in words)” value ([2]; human) of the same compound?
**A.** LC50 responses

**Q.** For `CCOc1ccc(NC(C)=O)cc1` [Phenacetin], which “Metabolite generation in slotted pipette tip compared with control hepatocyte suspension cultures (in words)” value [7] is on record?
**A.** compare favorably

**Q.** For `O=C1OC(c2ccc(O)cc2)(c2ccc(O)cc2)c2ccccc21` [Phenolphthalein], which “Metabolite generation in slotted pipette tip compared with control hepatocyte suspension cultures (in words)” value [7] is on record?
**A.** compare favorably

**Q.** And the “Effect of cryopreservation on hepatocyte clearance of probe (in words)” value [8]?
**A.** minimal impact

**Q.** What about the “Metabolite Generation (marker metabolite of the probe)” value ([8]; 30 min) of the same compound?
**A.** 0.12 pmol/min/10^6 hepatocytes

**Q.** And the “Metabolite Generation (marker metabolite of the probe)” value ([8]; 18 h)?
**A.** 0.02 pmol/min/10^6 hepatocytes

**Q.** For `O=c1ccc2ccccc2o1` [coumarin], which “Metabolite generation in slotted pipette tip compared with control hepatocyte suspension cultures (in words)” value [7] is on record?
**A.** compare favorably

**Q.** With Aflatoxin B1 as the compound, how does the “HEK293 cytotoxicity co-cultured with BioActivator (in words)” value [1] read?
**A.** No HEK293 cytotoxicity

**Q.** What about the “HEK293 cytotoxicity co-cultured with cell free agarose bead (in words)” value [1] of the same compound?
**A.** No HEK293 cytotoxicity
